Results published in patent publication US20140314847A1, “CONTROLLED RELEASE PHARMACEUTICAL COMPOSITIONS WITH IMPROVED BIOAVAILABILILTY” (priority 2004, published 2014).

Assay: In vitro dissolution study of acyclovir solubilized using various solubilizers
Format: physicochemical
Procedure: A solubilizing agent was melted in a container and a drug was added and mixed intimately and cooled to room temperature. The mass was sifted through an appropriate sieve to get a uniform blend. A blend of the drug was prepared using polyethylene glycol 6000, Lutrol F127 and Gelucire (50/13). Solid dispersion of the drug with various solubilizing agents like polyethylene glycol 6000, Lutrol F127 and Gelucire 50/13 were studied for their solubility in 900 ml distilled water. […] Also with Lutrol in ratio (1:0.5 to 1:2) a three-fold increase in instantaneous solubility was observed. These samples were taken for dissolution study and the result obtained are provided in Table 3 hereunder and graphically depicted in Figure-I: […]

% drug dissolved (0 min): 0%
% drug dissolved (5 min): 16.03%
% drug dissolved (10 min): 19.58%
% drug dissolved (15 min): 24.09%
% drug dissolved (20 min): 29.34%
% drug dissolved (30 min): 33.89%
% drug dissolved (45 min): 47.11%
% drug dissolved (60 min): 53.78%
% drug dissolved (90 min): 68.87%
% drug dissolved (120 min): 75.40%
Compound: Nc1nc2c(ncn2COCCO)c(=O)[nH]1 [Acyclovir as is, Acyclovir]
